experiment: gradient 5% acetonitrile 3 min, to 50% in 2 min, to 85% in 15 min, held 3 min, 100 µL/min; conditions: column: Zorbax Extend-C18 2.1 x 50 mm; eluents: water / acetonitrile, 0.1% formic acid
In short: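 The system's dead and dwell volumes were 40 μL and 900 μL, with a Zorbax Extend-C18 column (2.1 × 50 mm, 1.8 μm) run at 100 μL/min in water and acetonitrile containing 0.1% formic acid each. Pure standards were analyzed in mixtures of ~100 molecules by HPLC–quadrupole time-of-flight mass spectrometry in positive and negative ionization mode. Retention time was assigned from computationally picked, manually inspected adduct peaks.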

Compared with `Cc1nc(C)c(C(=O)Nc2nc(-c3ccc(Cl)cc3)cs2)s1`, `Cc1ccc(-c2csc(NC(=O)c3nc4ccccc4s3)n2)o1` is higher in RP-LC retention time: 992 s for the first, 1120 s for the second.

Compared with `O=C(CN1C(=O)CC(c2ccccc2)=Nc2cccnc21)Nc1ccc(Cl)cc1`, `Clc1ccc(Nc2c(-c3ccccc3Cl)nc3ccc(Cl)cn23)cc1` is lower in RP-LC retention time: 1010 s for the first, 946 s for the second.

Going from `O=c1n(Cc2cccc(C(F)(F)F)c2)nc2ccc(-c3ccccc3)nn12` to `Cc1ccc(-c2noc(Cn3nc(-c4ccccc4)ccc3=O)n2)cc1`, the RP-LC retention time rises from 887 s to 1080 s.

Going from `O=C(O)c1ccc2c(c1Nc1ccccc1)C(=O)c1ccccc1C2=O` to `CC(=O)c1cccc(NC(=O)c2cn(C)cc3c(=O)n(-c4ccccc4)nc2-3)c1`, the RP-LC retention time falls from 1020 s to 826 s.

Going from `O=C(Nc1ccc(Cl)cc1)N1CCC(n2c(C(F)(F)F)nc3cccnc32)CC1` to `O=C(Nc1ccc(C(F)(F)F)cc1)Nc1cccc(-c2nccnc2N2CCOCC2)c1`, the RP-LC retention time rises from 942 s to 956 s.

First: Cc1ccc(-c2cc3c4nnc(SCC(=O)Nc5ccc(Cl)cc5)n4ccn3n2)cc1C
Second: Cc1ccc(CC(=O)Nc2ccc(-c3nc(Cn4cc(C)cn4)c(C)o3)cc2)cc1
The RP-LC retention time of the first is higher: 1080 s for the first, 962 s for the second.

Going from `Cc1ccc(S(=O)(=O)C2=C(O)C(=O)N(Cc3ccco3)C2c2ccc(F)cc2)cc1` (centres undefined) to `Cc1ccc(-c2ncccc2CNS(=O)(=O)Cc2cc(F)cc(F)c2)cc1`, the RP-LC retention time falls from 931 s to 739 s.

First: CCc1cc(=O)n(CC(=O)Nc2cc(C)ccc2C)c(N2CCOCC2)n1
Second: CSc1cccc(NC(=O)Cn2c(N3CCC(C)CC3)nc(C)cc2=O)c1
The RP-LC retention time of the first is lower: 747 s for the first, 765 s for the second.

First: CCCCN(C(=O)c1noc2c1CC(C)CC2)C1CCN(C(C)=O)CC1 (centres undefined)
Second: CNC(=O)[C@@H]1C[C@@H](O)CN1C1CCN(C(=O)C2CCCCC2)CC1
The RP-LC retention time of the first is higher: 895 s for the first, 577 s for the second.

Compared with `O=C(O)c1nn(Cc2ccc(Cl)cc2Cl)c2ccccc12`, `Cc1nc(-c2cn(C)c3ncccc23)sc1C(=O)NCc1ccc(F)cc1Cl` is lower in RP-LC retention time: 1050 s for the first, 990 s for the second.

Going from `COCCn1nnnc1C1CC2(CCOCC2)C(=O)N1Cc1ccc(Cl)cc1` (centres undefined) to `O=C(c1cncc(Br)c1)N1CCC(Cc2nc(-c3ccc(Cl)cc3)no2)CC1`, the RP-LC retention time rises from 904 s to 1050 s.

Going from `Cc1cccc(NC(=O)c2cnc3c(c2)c(=O)n(C)c(=O)n3-c2ccc(F)cc2)c1` to `CCOc1ccc(NC(=O)Cn2c(=O)n(-c3cccc(C)c3)c(=O)c3c2cc(C)n3C)cc1`, the RP-LC retention time falls from 904 s to 864 s.

First: Cc1ccc(N2CCC(NC(=O)NC3CCCC3)C2=O)cc1C (centres undefined)
Second: Cc1ccc(Cl)cc1NC(=O)NC1CCN(c2ccc(F)cc2)C1=O (centres undefined)
The RP-LC retention time of the first is lower: 788 s for the first, 867 s for the second.

First: Nc1ccc2c(c1)nnn2-c1ccccc1
Second: CCn1c(=O)c(C)nc2cc(-c3noc(Cc4ccccc4Br)n3)ccc21
The RP-LC retention time of the first is lower: 708 s for the first, 1070 s for the second.

Compared with `COc1ccc(CCN2CC(=O)N(c3cc(C)cc(C)c3)[C@@H]3CS(=O)(=O)C[C@@H]32)cc1`, `COc1ccc(C2CC(=O)N(c3ccc(C)c(F)c3)C(=O)C2)cc1OC` is higher in RP-LC retention time: 865 s for the first, 867 s for the second.

Compared with `Cc1ccc(-c2coc(-c3ccc(NC(=O)c4cccs4)cc3)n2)cc1`, `Cn1nc(-c2cccc(NC(=O)c3cccs3)c2)ccc1=O` is lower in RP-LC retention time: 1170 s for the first, 678 s for the second.

First: CCOc1ccccc1N1CCN(S(=O)(=O)c2nn(C)cc2C(=O)NCCCOC)CC1
Second: COc1ccc(C(O)CN2CCN(c3ccccc3F)CC2)cc1OC (centres undefined)
The RP-LC retention time of the first is higher: 847 s for the first, 642 s for the second.

Compared with `COc1ccc(NC(=O)NCC(c2cccnc2)c2cn(C)c3ccccc23)c(OC)c1` (centres undefined), `COc1ccc(CC(=O)Nc2cc(-c3cn4cccnc4n3)ccc2OC)cc1` is lower in RP-LC retention time: 697 s for the first, 675 s for the second.

`Cc1cccc(Nc2nc(C(=O)NCCc3cccs3)nc3ccccc23)c1` and `Cc1ccc(C)c(S(=O)(=O)Nc2ccc(C(=O)Nc3ccccc3F)cc2)c1` are the same in RP-LC retention time: 863 s for the first, 863 s for the second.

Going from `Cc1noc2ncnc(N3CCC(C(=O)N4CCCc5ccccc54)CC3)c12` to `CN1CCN(C(=O)C2CCN(c3nc4ccc(-c5ccccc5)nc4s3)CC2)CC1`, the RP-LC retention time falls from 865 s to 672 s.

Going from `O=C(NCCC1=CCCCC1)C1CCN(c2cncnc2N2CCOCC2)CC1` to `O=C(NCCC1=CCCCC1)C1CCN(Cc2cc3ccccc3n2Cc2ccccc2Cl)CC1`, the RP-LC retention time rises from 656 s to 924 s.

Compared with `O=C(Nc1ccc(Cn2cncn2)cc1)c1ccc(Br)o1`, `CC1(C)CNc2cc(NC(=O)c3cccnc3NCc3ccncc3)ccc21` is lower in RP-LC retention time: 708 s for the first, 603 s for the second.

First: CC(C)CNC(=O)N1CCC(CCOc2ccncc2)CC1
Second: CC1CCN(C(=O)c2ccc3c(c2)n(C)c(=O)c2ccnn23)CC1
The RP-LC retention time of the first is higher: 594 s for the first, 587 s for the second.

Compared with `O=C(Nc1ccccc1)C1CCCN(S(=O)(=O)Cc2ccccc2Cl)C1` (centres undefined), `COc1ccc(S(=O)(=O)N2CCCC(C(=O)Nc3cccc(Br)c3)C2)cc1Cl` (centres undefined) is higher in RP-LC retention time: 976 s for the first, 1110 s for the second.

Going from `CCC(=O)N1CCc2c(sc3ncnc(NCCc4ccccc4)c23)C1` to `O=C(NC1CCCC1)c1ccc(CN2CCN(Cc3ccccc3)C(=O)C2=O)cc1`, the RP-LC retention time falls from 834 s to 734 s.

First: Cc1ccc(-n2nc3c(=O)n(CCCC(=O)N4CCCC4)nc(C)c3c2C)cc1
Second: Cc1cccc(C)c1NC(=O)C(C)n1cnc2nc3c(cc2c1=O)CCCC3 (centres undefined)
The RP-LC retention time of the first is lower: 748 s for the first, 756 s for the second.

Compared with `O=C(Cc1csc(NC(=O)c2ccsc2)n1)NCc1nc2ccccc2[nH]1`, `CSc1cccc(NC(=O)Cn2cccc2-c2nc(-c3ccc4c(c3)OCO4)no2)c1` is higher in RP-LC retention time: 573 s for the first, 1110 s for the second.

Going from `CCC(C)NC(=O)C1CCN(S(=O)(=O)c2cc(C(=O)N3CCCC3)n(C)c2)CC1` (centres undefined) to `O=C([C@@H]1C[C@H](F)CN1S(=O)(=O)c1cccc(F)c1)N1CCCCC1`, the RP-LC retention time rises from 660 s to 805 s.

Compared with `COc1ccc(-c2nc(C3CC(=O)N(c4ccc(F)c(Cl)c4)C3)no2)cc1OC` (centres undefined), `COc1cc(OC)c2c(=O)cc(-c3cccnc3)oc2c1` is lower in RP-LC retention time: 963 s for the first, 733 s for the second.

First: COCCN1C(=O)c2cccn2CC1CNC(=O)CC(C)C (centres undefined)
Second: Cc1ccc(-c2nnc(CC(=O)NCCC(C)C)o2)cc1
The RP-LC retention time of the first is lower: 639 s for the first, 829 s for the second.

Compared with `Cc1ccc(C)c(C(=O)CCC(=O)O)c1`, `CCCC(=O)Nc1ccc2c(c1)CN(C(=O)c1ccc(C)cc1C)C(C(=O)N(C)C)C2` (centres undefined) is lower in RP-LC retention time: 818 s for the first, 760 s for the second.

First: C[C@@H]1CN(C(=O)c2ccoc2)C[C@H]1c1nc(-c2ccccc2)no1
Second: O=S(=O)(c1cccs1)N1CC(c2nc(-c3ccncc3)no2)C1
The RP-LC retention time of the first is higher: 879 s for the first, 679 s for the second.

First: Cc1ccc(-c2ncc(NC(=O)CC(C)C)cn2)cc1
Second: COc1ccc(-c2c(C)nn3c(C)c(C(=O)OC(C)C)nnc23)cc1
The RP-LC retention time of the first is lower: 961 s for the first, 1010 s for the second.

First: CC(C)c1c(C2CCN(C(=O)c3cc(F)ccc3F)CC2)noc1N
Second: O=C(c1ccccn1)N1CCCC1c1nc(-c2ccc(F)cc2F)no1 (centres undefined)
The RP-LC retention time of the first is lower: 774 s for the first, 832 s for the second.

First: COc1ccc(OC)c(CNC(=O)C2CCCN(c3ncnc4c3nc3n4CCCCC3)C2)c1 (centres undefined)
Second: CCSc1nnc(NC(=O)C2CCCN(c3ccc(-c4ccco4)nn3)C2)s1 (centres undefined)
The RP-LC retention time of the first is higher: 746 s for the first, 672 s for the second.

First: COc1cc(C(=O)N2CCC3(CC2)Nc2cc(F)ccc2-n2cccc23)cc(OC)c1OC
Second: COc1cc(C)c(Cl)cc1S(=O)(=O)N1CCN(C(=O)c2ccco2)CC1
The RP-LC retention time of the first is higher: 868 s for the first, 797 s for the second.

First: CN(C)C1(CC2CC2)CCN(C(=O)C2CC2)CC1
Second: O=C(NCc1ccncc1)C1CN(S(=O)(=O)C2CC2)CC12CCCCC2 (centres undefined)
The RP-LC retention time of the first is lower: 558 s for the first, 598 s for the second.

Going from `O=C1OC2CC1N(C(=O)Cn1c(=O)oc3ccccc31)C2` (centres undefined) to `CCn1c(C(=O)N2CCOCC2)cc2c(=O)oc3ccccc3c21`, the RP-LC retention time rises from 618 s to 713 s.

First: Cc1nc(N2CCN(c3ccccn3)CC2)c2c(C)c(C(=O)Nc3cc(F)ccc3C)sc2n1
Second: CCc1noc(-c2cccnc2N2CCCN(Cc3ccccc3Cl)CC2)n1
The RP-LC retention time of the first is higher: 733 s for the first, 679 s for the second.

Compared with `COc1ccccc1-c1cc2c(=O)n(Cc3nc(-c4ccccc4)oc3C)ccn2n1`, `Cc1ccc(Nc2c(-c3ccccc3O)nc3ccc(C)cn23)cc1` is lower in RP-LC retention time: 1120 s for the first, 774 s for the second.

Compared with `c1cc(-c2nc3c(c(N4CCSCC4)n2)CCC3)ccn1`, `O=C(NCc1cccnc1)C1CCN(c2nc3ccc(-c4cncnc4)nc3s2)CC1` is lower in RP-LC retention time: 675 s for the first, 584 s for the second.

First: Cc1ccc(F)c(NC(=O)c2nc3nc(C)cc(C(F)F)n3n2)c1
Second: COC(=O)c1cnc2nc(C)ccc2c1Nc1cccc(F)c1
The RP-LC retention time of the first is higher: 846 s for the first, 673 s for the second.

Compared with `O=C(c1cccc(Br)c1)N1CCN(CCn2cccn2)CC1`, `Cc1ccc(C(=O)N2CCOc3ccc(N(C)C)cc3C2)s1` is higher in RP-LC retention time: 554 s for the first, 632 s for the second.

Compared with `Cc1cccc(NC(=O)C2(C)Oc3cccnc3N(C)C2=O)c1C` (centres undefined), `CC(C)c1ccc(NC(=O)C2CC(=O)N(c3cccc(NC(=O)C4CCC4)c3)C2)cc1` (centres undefined) is higher in RP-LC retention time: 808 s for the first, 929 s for the second.

Molecule `CC1(C)O[C@H]2CC(=O)OC[C@]23[C@H]2CC[C@@]4(C)[C@H](c5ccoc5)OC(=O)C5O[C@]54[C@]2(C)C(=O)C[C@@H]13` (some centres undefined) has an RP-LC retention time of 918 s.

Reference: the METLIN SMRT retention time set (Domingo-Almenara et al. 2019)
